Data as given in PubChem BioAssay (NCI).
Values joined by “and” are separate entries in the source; they are usually repeats but may differ in a detail not shown here. Identical values can stand only once.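 Briefly, cells in 96-well plates were exposed to five compound concentrations for 48 h, and endpoints were estimated by linear interpolation. GI50 marks 50% less growth. TGI marks complete inhibition of growth.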

Key:
Experiment in all cases: growth of human tumour cells (NCI), 48 h; in the data active = GI50 below about 0.43 µM; inactive = the rest
[1] = test system: UO-31 renal
[2] = test system: SNB-19 CNS
[3] = test system: SK-MEL-28 melanoma
[4] = test system: HCC-2998 colon
[5] = test system: UACC-62 melanoma
[6] = test system: OVCAR-5 ovarian
[7] = test system: EKVX NSCLC
[8] = test system: RPMI-8226 leukemia
[9] = test system: TK-10 renal
[10] = test system: RXF 393 renal

CN(C(=O)C12C3C4C1C1C2C3C41C(=O)C(C)(C)C)C(C)(C)C (stereo not given)
> 100 µM: TGI [1] | TGI [2] | TGI [3] | TGI [4] | TGI [5] | TGI [6] | TGI [7] | TGI [8] | TGI [9]

CSc1ccc(C2=NN(C(C)=O)C(c3cc(C)cs3)C2)cc1 (stereo not given)
98.4 µM: TGI [5]
> 100 µM: TGI [1] | TGI [10] | TGI [2] | TGI [3] | TGI [4] | TGI [6] | TGI [7] | TGI [8] | TGI [9]
inactive: GI50 [1] 19.9 µM | GI50 [10] 56.7 µM | GI50 [2] 37 µM | GI50 [3] 37 µM | GI50 [4] 20 µM | GI50 [5] 11.2 µM | GI50 [6] 44.4 µM | GI50 [7] 24.3 µM | GI50 [8] 15.3 µM | GI50 [9] 26.9 µM

CC1=C(C(=O)Nc2ccc3[nH]ncc3c2)C(c2ccc3ccccc3c2)CC(=O)N1 (stereo not given)
inactive: GI50 [1] 2.4 µM | GI50 [10] 4.11 µM | GI50 [2] > 25 µM | GI50 [3] > 22.2 µM | GI50 [4] > 25 µM | GI50 [5] 14.5 µM | GI50 [6] 20.5 µM | GI50 [7] > 17.9 µM | GI50 [8] > 25 µM | GI50 [9] 8.73 µM
> 25 µM: TGI [1] | TGI [2] | TGI [3] | TGI [4] | TGI [5] | TGI [6] | TGI [7] | TGI [8] | TGI [9]
> 23.8 µM: TGI [10]

CCOC(=O)NC(=O)c1cn(C2OC(COC(=O)CCCCCCCCC(=O)OCC3OC(n4cc(C(=O)NC(=O)OCC)c(=O)[nH]c4=O)C(O)C3O)C(O)C2O)c(=O)[nH]c1=O (stereo not given)
> 100 µM: TGI [1] | TGI [10] | TGI [2] | TGI [3] | TGI [4] | TGI [5] | TGI [6] | TGI [7] | TGI [8] | TGI [9]

COC(=O)CCCCN=Cc1c(O)c(O)c(C(C)C)c2cc(C)c(-c3c(C)cc4c(C(C)C)c(O)c(O)c(C=NCCCCC(=O)OC)c4c3O)c(O)c12
inactive: GI50 [1] 0.923 µM | GI50 [10] 0.596 µM | GI50 [2] 0.713 µM | GI50 [3] 1.77 µM | GI50 [4] 1.19 µM | GI50 [7] 0.924 µM | GI50 [8] 0.616 µM | GI50 [9] 1.05 µM
20.3 µM: TGI [8]
> 32.5 µM: TGI [2] | TGI [3] | TGI [4] | TGI [7] | TGI [9]
26.5 µM: TGI [1]
3.18 µM: TGI [10]

O=C(c1ccco1)c1nc2ccc(C(F)(F)F)cc2[n+]([O-])c1C(F)(F)F
80 µM: TGI [10]
> 100 µM: TGI [1] | TGI [2] | TGI [3] | TGI [4] | TGI [5] | TGI [6] | TGI [7] | TGI [9]
inactive: GI50 [1] > 100 µM | GI50 [10] 22.2 µM | GI50 [2] 36.4 µM | GI50 [3] 23.5 µM | GI50 [4] 85.6 µM | GI50 [5] 43.1 µM | GI50 [6] > 100 µM | GI50 [7] 12.9 µM | GI50 [8] 20.3 µM | GI50 [9] 28.8 µM
93 µM: TGI [8]

CC(C)CC(=O)[O-].CC(C)CC(=O)[O-].N.N.N.N.[Co+3].[O-][Cl+3]([O-])([O-])[O-]
inactive: GI50 [1] 84.7 µM and > 100 µM | GI50 [2] > 100 µM | GI50 [3] > 100 µM | GI50 [4] > 100 µM | GI50 [5] > 100 µM | GI50 [6] > 100 µM | GI50 [7] > 100 µM | GI50 [8] > 100 µM | GI50 [9] > 100 µM
> 100 µM: TGI [1] | TGI [2] | TGI [3] | TGI [4] | TGI [5] | TGI [6] | TGI [7] | TGI [8] | TGI [9]

Cc1ccc(S(=O)(=O)N(CCOc2ccc(/C(N)=N/Cl)cc2)CCOc2ccc(/C(N)=N\Cl)cc2)cc1
46.3 µM: TGI [4]
93.2 µM: TGI [7]
64.5 µM: TGI [5]
inactive: GI50 [1] > 100 µM | GI50 [2] 5.65 µM | GI50 [3] 25.7 µM | GI50 [4] 18.2 µM | GI50 [5] 19 µM | GI50 [6] > 100 µM | GI50 [7] 18.4 µM | GI50 [8] 8.99 µM | GI50 [9] 40 µM
> 100 µM: TGI [1] | TGI [2] | TGI [3] | TGI [6] | TGI [8] | TGI [9]

COC(=O)CC(=O)C[P+](c1ccccc1)(c1ccccc1)c1ccccc1
> 218 µM: TGI [10] | TGI [2] | TGI [3] | TGI [4] | TGI [5] | TGI [7] | TGI [8] | TGI [9]

COc1cc(/C=C/c2cc(/C=C/c3ccc(O)c(OC)c3)n(-c3ccccc3)n2)ccc1O
1.99 µM: TGI [9]
2.72 µM: TGI [3]
inactive: GI50 [4] 0.605 µM | GI50 [6] 1.27 µM | GI50 [7] 1.12 µM | GI50 [9] 0.563 µM
3.7 µM: TGI [7]
1.53 µM: TGI [1]
4.51 µM: TGI [6]
active: GI50 [1] 0.287 µM | GI50 [10] 0.258 µM | GI50 [3] 0.386 µM
2.46 µM: TGI [4]
0.888 µM: TGI [10]

Cn1c(N2NC(=O)C(N=Nc3ccc(S(N)(=O)=O)cc3)C2=O)nc(-c2ccco2)c(C#N)c1=O (stereo not given)
45.5 µM: TGI [3]
30.2 µM: TGI [8]
> 50 µM: TGI [1] | TGI [2] | TGI [5] | TGI [6] | TGI [7]
33.5 µM: TGI [9]
26.1 µM: TGI [10]
inactive: GI50 [1] > 50 µM | GI50 [10] 9.65 µM | GI50 [2] > 50 µM | GI50 [3] 11.7 µM | GI50 [5] 39.4 µM | GI50 [6] > 50 µM | GI50 [7] 35.7 µM | GI50 [8] 4.98 µM | GI50 [9] 8.64 µM

Cc1ccc(-c2c3c([nH]c(=O)c2C#N)-c2cc(F)ccc2OC3)cc1
80.9 µM: TGI [9]
inactive: GI50 [1] 41.3 µM | GI50 [10] > 100 µM | GI50 [2] 70.4 µM | GI50 [3] > 100 µM | GI50 [5] 61.2 µM | GI50 [6] > 100 µM | GI50 [7] 95.5 µM | GI50 [8] 28.3 µM | GI50 [9] 29.4 µM
> 100 µM: TGI [1] | TGI [10] | TGI [2] | TGI [3] | TGI [5] | TGI [6] | TGI [7] | TGI [8]

COc1ccc2ccc3c(c2c1)CN1CCc2cc(OC)c(OC)cc2C1C3 (stereo not given)
> 100 µM: TGI [1] | TGI [2] | TGI [3] | TGI [4] | TGI [5] | TGI [6] | TGI [7] | TGI [8] | TGI [9]

Cc1ccc(S(=O)(=O)C(CC(=O)N2CCCC2)C(=O)c2ccccc2)cc1 (stereo not given)
> 100 µM: TGI [1] | TGI [10] | TGI [2] | TGI [3] | TGI [4] | TGI [5] | TGI [6] | TGI [9]

COC(=O)C1=C(C(=O)OC)C2C=CC1C1C(Cl)=C(Cl)C21 (stereo not given)
> 100 µM: TGI [1] | TGI [10] | TGI [3] | TGI [4] | TGI [5] | TGI [6] | TGI [7] | TGI [8] | TGI [9]
